Data: ChEMBL document CHEMBL4354814 (J Med Chem, 2019)
Active and inactive are the calls of the source. The calls are words filed in the database; no cut-off is given here.

Key:
Cannabinoid receptor 2 [1] = molecular target: T1, Cannabinoid receptor 2 (Homo sapiens, UniProt P34972); assay: Agonist activity at CB2R in human U266 cells assessed as reduction in MIF gene expression at 50 uM incubated for 2 hrs by qRT-PCR analysis; type: cell-based
Cannabinoid receptor 2 [2] = molecular target: T1, Cannabinoid receptor 2; assay: Agonist activity at CB2R in human U266 cells assessed as reduction in MIF gene expression at 50 uM pretreated for 30 mins with AM630 and incubated for 2 hrs by qRT-PCR analysis; type: cell-based
Cannabinoid receptor 2 [3] = molecular target: T1, Cannabinoid receptor 2; assay: Agonist activity at CB2R in human U266 cells assessed as reduction in STAT3 gene expression at 50 uM incubated for 2 hrs by qRT-PCR analysis; type: cell-based
Cannabinoid receptor 2 [4] = molecular target: T1, Cannabinoid receptor 2; assay: Agonist activity at CB2R in human U266 cells assessed as reduction in STAT3 gene expression at 50 uM pretreated for 30 mins with AM630 incubated for 2 hrs by qRT-PCR analysis; type: cell-based
Acetylcholinesterase [5] = molecular target: T2, Acetylcholinesterase (Homo sapiens, UniProt P22303)
Description: Inhibition of recombinant human AChE assessed as inhibition constant for enzyme-substrate-inhbitor complex using acetylthiocholine iodide as substrate preincubated for 20 mins followed by substrate addition and measured for 3 mins by spectrophotometry based Lineweaver-Burk plot analysis

Acetylcholinesterase [6] = molecular target: T2, Acetylcholinesterase; remark: listed apart in the source
Description: Inhibition of recombinant human AChE assessed as inhibition constant for enzyme-inhibitor complex using acetylthiocholine iodide as substrate preincubated for 20 mins followed by substrate addition and measured for 3 mins by spectrophotometry based Lineweaver-Burk plot analysis

Cannabinoid receptor 2 [7] = molecular target: T1, Cannabinoid receptor 2; assay: biochemical
Cannabinoid receptor 2 [8] = molecular target: T1, Cannabinoid receptor 2; assay: Agonist activity at human CB2R expressed in CHO-K1 cells assessed as increase in intracellular calcium mobilization by calcein4-AM dye based fluorescence assay relative to control; type: functional, cell-based
[9] = molecular target: Cannabinoid receptor 1 (Homo sapiens) (UniProt P21554); assay: Agonist activity at human CB1R expressed in CHO-K1 cells assessed as increase in intracellular calcium mobilization by calcein4-AM dye based fluorescence assay; type: functional, cell-based
Cannabinoid receptor 2 [10] = molecular target: T1, Cannabinoid receptor 2
Acetylcholinesterase [11] = molecular target: T2, Acetylcholinesterase; assay: Inhibition of recombinant human AChE at 10 uM using acetylthiocholine iodide as substrate preincubated for 20 mins followed by substrate addition and measured for 3 mins by spectrophotometry based Ellman's method relative to control
[12] = molecular target: Cannabinoid receptor 1 (Homo sapiens) (UniProt P21554); assay: Binding affinity at human CB1R expressed in CHO cells at 10 uM incubated for 3 hrs by microbeta scintillation counting relative to control; type: cell-based
[13] = molecular target: Cholinesterase (Homo sapiens) (UniProt P06276); assay: Inhibition of human BChE at 10 uM using butyrylthiocholine iodide as substrate preincubated for 20 mins followed by substrate addition and measured for 3 mins by spectrophotometry based Ellman's method relative to control
Chain of Cholinesterase (Homo sapiens) (P06276 whole entry): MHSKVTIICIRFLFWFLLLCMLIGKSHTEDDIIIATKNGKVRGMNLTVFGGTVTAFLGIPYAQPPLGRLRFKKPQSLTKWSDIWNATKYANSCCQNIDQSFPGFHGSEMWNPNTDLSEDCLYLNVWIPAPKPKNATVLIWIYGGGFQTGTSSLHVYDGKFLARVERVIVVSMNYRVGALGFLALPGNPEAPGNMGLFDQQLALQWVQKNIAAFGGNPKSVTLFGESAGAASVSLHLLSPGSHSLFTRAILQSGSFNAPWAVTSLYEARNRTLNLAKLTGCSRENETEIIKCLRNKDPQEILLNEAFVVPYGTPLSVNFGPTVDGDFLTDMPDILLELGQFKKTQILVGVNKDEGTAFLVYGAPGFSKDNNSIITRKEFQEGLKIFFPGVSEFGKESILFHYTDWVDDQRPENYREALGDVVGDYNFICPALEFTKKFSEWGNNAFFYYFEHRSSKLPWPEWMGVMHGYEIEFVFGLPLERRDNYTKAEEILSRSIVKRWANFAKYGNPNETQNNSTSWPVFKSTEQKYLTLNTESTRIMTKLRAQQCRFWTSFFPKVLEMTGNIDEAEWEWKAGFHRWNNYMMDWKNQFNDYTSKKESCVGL

T2 sequence (P22303 whole entry): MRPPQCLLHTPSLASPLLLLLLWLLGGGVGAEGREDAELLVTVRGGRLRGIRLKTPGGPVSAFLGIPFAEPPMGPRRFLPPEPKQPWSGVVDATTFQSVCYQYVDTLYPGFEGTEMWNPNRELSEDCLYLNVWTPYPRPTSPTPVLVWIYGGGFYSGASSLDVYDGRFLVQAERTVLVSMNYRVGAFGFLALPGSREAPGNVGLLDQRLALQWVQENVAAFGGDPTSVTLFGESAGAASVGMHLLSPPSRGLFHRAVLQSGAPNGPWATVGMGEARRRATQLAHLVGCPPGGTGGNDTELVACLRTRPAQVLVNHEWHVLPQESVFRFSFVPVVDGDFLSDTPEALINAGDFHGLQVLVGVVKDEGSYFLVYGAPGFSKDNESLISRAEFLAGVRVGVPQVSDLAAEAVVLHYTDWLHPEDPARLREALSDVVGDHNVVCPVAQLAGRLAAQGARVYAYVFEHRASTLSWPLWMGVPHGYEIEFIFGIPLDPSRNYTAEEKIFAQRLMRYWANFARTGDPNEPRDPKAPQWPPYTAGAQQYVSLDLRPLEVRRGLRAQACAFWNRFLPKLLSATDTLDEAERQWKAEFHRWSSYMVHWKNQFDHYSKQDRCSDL
T1 sequence (P34972 whole entry): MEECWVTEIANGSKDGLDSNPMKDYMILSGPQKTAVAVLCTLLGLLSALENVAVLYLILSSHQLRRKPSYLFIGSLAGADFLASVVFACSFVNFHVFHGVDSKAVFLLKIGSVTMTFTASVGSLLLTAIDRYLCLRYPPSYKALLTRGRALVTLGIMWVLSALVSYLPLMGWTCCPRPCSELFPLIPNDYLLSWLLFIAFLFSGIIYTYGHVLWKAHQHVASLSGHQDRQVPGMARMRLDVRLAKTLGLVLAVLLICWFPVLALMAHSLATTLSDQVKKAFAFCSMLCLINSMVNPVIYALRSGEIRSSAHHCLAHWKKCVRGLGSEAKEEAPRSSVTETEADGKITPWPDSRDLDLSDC
Chain of Cannabinoid receptor 1 (Homo sapiens) (P21554 whole entry): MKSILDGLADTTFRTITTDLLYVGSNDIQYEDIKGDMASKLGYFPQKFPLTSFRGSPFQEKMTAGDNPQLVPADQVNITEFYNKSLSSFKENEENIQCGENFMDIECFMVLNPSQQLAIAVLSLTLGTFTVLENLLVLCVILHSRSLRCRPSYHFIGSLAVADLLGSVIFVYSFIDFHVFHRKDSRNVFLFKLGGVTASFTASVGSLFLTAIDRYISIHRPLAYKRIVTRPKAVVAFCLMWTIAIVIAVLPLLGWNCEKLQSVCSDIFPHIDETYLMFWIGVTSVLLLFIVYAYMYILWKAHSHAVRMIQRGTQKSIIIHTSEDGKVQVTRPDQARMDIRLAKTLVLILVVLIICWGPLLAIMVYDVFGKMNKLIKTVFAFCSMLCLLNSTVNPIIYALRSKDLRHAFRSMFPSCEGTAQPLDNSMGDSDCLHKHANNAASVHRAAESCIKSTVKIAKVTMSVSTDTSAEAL

SMILES	Activity (Cannabinoid receptor 2 [1])	Activity (Cannabinoid receptor 2 [2])	Activity (Cannabinoid receptor 2 [3])	Activity (Cannabinoid receptor 2 [4])	Ki (Acetylcholinesterase [5]) [nM]	Ki (Acetylcholinesterase [6]) [nM]	Ki (Cannabinoid receptor 2 [7]) [nM]	Emax (Cannabinoid receptor 2 [8]) [%]	Activity [9]	EC50 (Cannabinoid receptor 2 [10]) [nM]	inhibition (Acetylcholinesterase [11]) [%]	Activity [12] [%]	inhibition [13] [%]
CCOc1ccc(Cc2nc3cc(C(=O)NCCOCCOCCNc4c5c(nc6ccccc46)CCCC5)ccc3n2CCC(C)C)cc1	Active	Active	Active	Active									
CCOc1ccc(Cc2nc3cc(C(=O)NCCSSCCNc4c5c(nc6ccccc46)CCCC5)ccc3n2CCC(C)C)cc1					27.9	16.7							
CCOc1ccc(Cc2nc3cc(C(=O)N(CC)CC)ccc3n2CCCNc2c3c(nc4ccccc24)CCCC3)cc1							30700						
CCOc1ccc(Cc2nc3cc(C(=O)N(CC)CC)ccc3n2CCCCCCNc2c3c(nc4ccccc24)CCCC3)cc1	Active	Active	Active	Active	206	88.5		51	inactive				
CCOc1ccc(Cc2nc3cc(C(=O)NCCCCNc4c5c(nc6ccccc46)CCCC5)ccc3n2CCC(C)C)cc1	Active	Active	Active	Active				39	inactive	911			
CCOc1ccc(Cc2nc3cc(C(=O)N(CC)CC)ccc3n2CCC(C)C)cc1	Active	Active	Active	Active							< 10	24	< 10
